In patent publication US20240409558A1, “IRREVERSIBLE INHIBITORS OF KRAS” (BIOMEA FUSION, INC., priority 2021, published 2024):
pIC50: −log10 of the molar value.

Each compound was assayed on human KRAS G12C mutated cell line MIA PaCa-2 (assay: Inhibition of proliferation of MIA PaCa-2 cells (CellTiter-Glo, 7 day)). Details: 168 h, Table 1, CellTiter-Glo luminescence read on day 7, read-out: MIA PaCa-2 IC50.
Type: cell-based
Text: The present example evaluates the ability of compounds provided herein to inhibit proliferation of KRAS mutant cells.
The proliferation inhibitory effect was investigated in the human KRAS G12C mutated cell line MIA PaCa-2 (Yunis et al., 1977, Int. J. Cancer 19(1):128-135; ATCC catalog no. CRL-1420). Cells were maintained in RPMI-1640 medium (ThermoFisher catalog no. 61870036) supplemented with 10% of Heat Inactivated FBS (ThermoFisher catalog no. A31605) and 1% Pen-Strep (ThermoFisher catalog no. 10378016) and cultured at 37° C. in a humidified incubator with 5% CO2. Cell lines were grown by adhering to culture flasks, and the cells were maintained in a range 70%-80% confluency.
ATP is present in all metabolically active cells and is considered as a marker for cell viability and proliferation. Metabolic cell activity was determined using the CellTiter-Glo kit (Promega catalog no. G7572), an ATP monitoring system based on the production of luminescence by the reaction of ATP with added UltraGlo® recombinant luciferase (Kawano et al., 2016, PLOS One, 8; 11(7):e0158888), according to the supplier's experimental recommendations. The assay was based on a 96 well plate format.
Test compounds were dissolved at 10 mM in DMSO (Sigma catalog no. D8418; purity >99.9%) and stored at −20° C. Eight concentrations of test compound were assessed in duplicate in an individual test occasion in parallel in the selected cell lines. MRTX-849 and AMG-510 were used as reference compounds and tested in duplicate at eight concentrations. 100% of proliferation is represented by the untreated cells (0.2% DMSO).
(§1) On the day of the experiment (TO), cells were detached with TrypLE (ThermoFisher catalog no. 12604054) and quantified using the Vi-CELL XR Cell Viability (Beckman Coulter) analyzer and diluted with fresh medium to obtain the cell density of about 1000 cells per 200 μL medium. 200 μL of cell suspension were added into wells in the 96 well plate.
After 2 hours from seeding cells, compounds were added using a D300e compound dispenser (Tecan Trading AG) at desired concentrations with shaking between each compound dispensed. Cell plates containing 200 μL/well were incubated at 37° C. in a humidified incubator with 5% CO2.
On day T3, 150 μL of growth media per well were removed from plates containing the samples, 150 uL fresh growth media were added to each well, and fresh compounds were added using a D300e compound dispenser (Tecan Trading AG) at desired concentrations with shaking between each compound dispensed. Cell plates containing 200 uL/well were incubated at 37° C. in a humidified incubator with 5% CO2. On day T7 plates containing the samples were equilibrated at room temperature for approximately 15 min, and then 40 μL/well of the Promega CellTiterGlo® reagent was added. Contents were mixed for 30 minutes on an orbital shaker to induce cell lysis. Luminescence was read using a Synergy Neo 2 (Agilent Technologies.
Data was expressed as % of inhibition compared to the 0.2% DMSO negative control, and is calculated as follows: % inhibition=100−[(RLU sample)×100/(RLU controls*)], where * indicates the average for 0.2% DMSO. […]
as §1, with “12604054),” for “12604054) and”, “resuspended in” for “diluted with”, “at a” for “to obtain the”, “to each well of a” for “into wells in the”
Two hours after seeding cells, compounds were added at desired concentrations using a D300e compound dispenser (Tecan Trading AG) with shaking after each compound addition. Assay plates were incubated at 37° C. in a humidified incubator with 5% CO2.
On day 3 (T3) 150 μL of medium from assay plates were removed. 150 μL fresh medium and compounds were added at desired concentrations using a D300e compound dispenser (Tecan Trading AG) with shaking after each compound addition. […]
Compound `C=CC(=O)N1[C@@H]2CC[C@H]1CN(c1nc(OC[C@@]34CCCN3C[C@H](F)C4)nc3c(F)c(-c4cc(O)cc(Cl)c4C4CC4)ccc13)C2` [Compound 1, 1-((1R,5S)-3-(7-(3-chloro-2-cyclopropyl-5-hydroxyphenyl)-8-fluoro-2-(((2R,7aS)-2-fluorotetrahydro-1H-pyrrolizin-7a(5H)-yl)methoxy)quinazolin-4-yl)-3,8-diazabicyclo[3.2.1]octan-8-yl)prop-2-en-1-one] has a pIC50 of 9.13.

Same assay, conditions: 168 h, Table 2, CellTiter-Glo luminescence read on day 7, read-out: MIA PaCa-2 IC50
With `Oc1cc(Cl)c(C2CC2)c(-c2ccc3c(N4C[C@H]5CC[C@@H](C4)N5)nc(OC[C@@]45CCCN4C[C@H](F)C5)nc3c2F)c1` [Compound 201, 3-(4-((1R,5S)-3,8-diazabicyclo[3.2.1]octan-3-yl)-8-fluoro-2-(((2R,7aS)-2-fluorotetrahydro-1H-pyrrolizin-7a(5H)-yl)methoxy)quinazolin-7-yl)-5-chloro-4-cyclopropylphenol] the pIC50 was 6.45.
Compound `Oc1cc(Cl)c(C2CC2)c(-c2ccc3c(C4CC5CCC(C4)N5)nc(OCC45CCCN4CC(F)C5)nc3c2F)c1` (centres unmarked) [Compound 205] has a pIC50 of 6.45.

Same assay, conditions: 168 h, Table 3, 7 day, mean, read-out: MIA PaCa-2 IC50 (μM) 7 day Mean
`C=CC(=O)N1CCC(c2nc(OC[C@@]34CCCN3C[C@H](F)C4)nc3c(F)c(-c4cc(O)cc5ccc(F)c(F)c45)ncc23)C[C@H]1C` (stereo in doubt) [Compound 334, 1-[(2R)-4-[7-(7,8-difluoro-3-hydroxy-1-naphthyl)-8-fluoro-2-[[(2R,8S)-2-fluoro-1,2,3,5,6,7-hexahydropyrrolizin-8-yl]methoxy]pyrido[4,3-d]pyrimidin-4-y1]-2-methyl-1-piperidyl]prop-2-en-1-one] was tested, and the IC50 was 0.00443 µM.
In the case of `C=CC(=O)N1C2CCC1CN(c1nc(OCC34CCCN3CCC4)nc3c(F)c(-c4cccc(Cl)c4C4CC4)ncc13)C2` [Compound 301, 1-[3-[7-(3-chloro-2-cyclopropyl-phenyl)-8-fluoro-2-(1,2,3,5,6,7-hexahydropyrrolizin-8-ylmethoxy)pyrido[4,3-d]pyrimidin-4-yl]-3,8-diazabicyclo[3.2.1]octan-8-yl]prop-2-en-1-one], the IC50 was 0.16 µM.
`C=CC(=O)N1C2CCC1CN(c1nc(OC[C@@]34CCCN3C[C@H](F)C4)nc3c(F)c(-c4cc(O)cc(Cl)c4C4CC4)ncc13)C2` [Compound 302, 1-[3-[7-(3-chloro-2-cyclopropyl-5-hydroxy-phenyl)-8-fluoro-2-[[(2R,8S)-2-fluoro-1,2,3,5,6,7-hexahydropyrrolizin-8-yl]methoxy]pyrido[4,3-d]pyrimidin-4-yl]-3,8-diazabicyclo[3.2.1]octan-8-yl]prop-2-en-1-one] showed an IC50 of 0.000287 µM.
Compound `C#Cc1c(F)ccc2cccc(-c3ncc4c(N5CC6CCC(C5)N6C(=O)C=C)nc(OCC56CCCN5CCC6)nc4c3F)c12` [Compound 303, 1-[3-[7-(8-ethynyl-7-fluoro-1-naphthyl)-8-fluoro-2-(1,2,3,5,6,7-hexahydropyrrolizin-8-ylmethoxy)pyrido[4,3-d]pyrimidin-4-yl]-3,8-diazabicyclo[3.2.1]octan-8-yl]prop-2-en-1-one] has an IC50 of 0.0006 µM.
`C=CC(=O)N1C2CCC1CN(c1nc(OC[C@@]34CCCN3C[C@H](F)C4)nc3c(F)c(-c4c(C)c(Cl)cc5[nH]ncc45)ncc13)C2` [Compound 304, 1-[3-[7-(6-chloro-5-methyl-1H-indazol-4-yl)-8-fluoro-2-[[(2R,8S)-2-fluoro-1,2,3,5,6,7-hexahydropyrrolizin-8-yl]methoxy]pyrido[4,3-d]pyrimidin-4-yl]-3,8-diazabicyclo[3.2.1]octan-8-yl]prop-2-en-1-one] showed an IC50 of 0.017 µM.
`C=CC(=O)N1C2CCC1CN(c1nc(OC[C@@]34CCCN3C[C@H](F)C4)nc3c(F)c(-c4cc(O)cc5cccc(Cl)c45)ncc13)C2` [Compound 305, 1-[3-[7-(8-chloro-3-hydroxy-1-naphthyl)-8-fluoro-2-[[(2R,8S)-2-fluoro-1,2,3,5,6,7-hexahydropyrrolizin-8-yl]methoxy]pyrido[4,3-d]pyrimidin-4-y1]-3,8-diazabicyclo[3.2.1]octan-8-yl]prop-2-en-1-one] was tested, and the IC50 was 0.0023 µM.
With `C=CC(=O)N1C2CCC1CN(c1nc(OC[C@@]34CCCN3C[C@H](F)C4)nc3c(F)c(-c4cc(O)cc5ccc(F)c(F)c45)ncc13)C2` [Compound 306, 1-[3-[7-(7,8-difluoro-3-hydroxy-1-naphthyl)-8-fluoro-2-[[(2R,8S)-2-fluoro-1,2,3,5,6,7-hexahydropyrrolizin-8-yl]methoxy]pyrido[4,3-d]pyrimidin-4-yl]-3,8-diazabicyclo[3.2.1]octan-8-yl]prop-2-en-1-one] the IC50 was 0.0015 µM.
`C=C(F)C(=O)N1C2CCC1CN(c1nc(OC[C@@]34CCCN3C[C@H](F)C4)nc3c(F)c(-c4cc(O)cc(Cl)c4C4CC4)ccc13)C2` [Compound 307, 1-[3-[7-(3-chloro-2-cyclopropyl-5-hydroxy-phenyl)-8-fluoro-2-[[(2R,8S)-2-fluoro-1,2,3,5,6,7-hexahydropyrrolizin-8-yl]methoxy]quinazolin-4-yl]-3,8-diazabicyclo[3.2.1]octan-8-yl]-2-fluoro-prop-2-en-1-one] showed an IC50 of 0.126 µM.
Compound `C=CC(=O)N1C2CCC1CN(c1nc(OC[C@@]34CCCN3C[C@H](F)C4)nc3cc(-c4cc(O)cc(Cl)c4C4CC4)c(F)cc13)C2` [Compound 308, 1-[3-[7-(3-chloro-2-cyclopropyl-5-hydroxy-phenyl)-6-fluoro-2-[[(2R,8S)-2-fluoro-1,2,3,5,6,7-hexahydropyrrolizin-8-yl]methoxy]quinazolin-4-y1]-3,8-diazabicyclo[3.2.1]octan-8-yl]prop-2-en-1-one] has an IC50 of 0.0282 µM.
`C=CC(=O)N1C2CCC1CN(c1nc(OC[C@@]34CCCN3C[C@H](F)C4)nc3cc(-c4cc(O)cc(Cl)c4C4CC4)cnc13)C2` [Compound 309] was tested, and the IC50 was greater than 1 µM.
For `C=CC(=O)N1CCC2(c3nc(OC[C@@]45CCCN4C[C@H](F)C5)nc4c(F)c(-c5cc(O)cc6ccccc56)ncc34)CC2C1` (stereo partly drawn) [Compound 310, 1-[6-[8-fluoro-2-[[(2R,8S)-2-fluoro-1,2,3,5,6,7-hexahydropyrrolizin-8-yl]methoxy]-7-(3-hydroxy-1-naphthyl)pyrido[4,3-d]pyrimidin-4-yl]-3-azabicyclo[4.1.0]heptan-3-yl]prop-2-en-1-one], the IC50 was greater than 1 µM.
Work on `C=CC(=O)N1C[C@H]2C[C@@H]1CN2c1nc(OC[C@@]23CCCN2C[C@H](F)C3)nc2c(F)c(-c3cc(O)cc(Cl)c3C3CC3)ccc12` [Compound 311, 1-[(1R,4R)-5-[7-(3-chloro-2-cyclopropyl-5-hydroxy-phenyl)-8-fluoro-2-[[(2R,8S)-2-fluoro-1,2,3,5,6,7-hexahydropyrrolizin-8-yl]methoxy]quinazolin-4-yl]-2,5-diazabicyclo[2.2.1]heptan-2-yl]prop-2-en-1-one] yielded an IC50 greater than 1 µM.
Work on `C=CC(=O)N1C[C@H]2C[C@@H]1CN2c1nc(OC[C@@]23CCCN2C[C@H](F)C3)nc2cc(-c3cc(O)cc(Cl)c3C3CC3)cnc12` [Compound 312, 1-[(1R,4R)-5-[7-(3-chloro-2-cyclopropyl-5-hydroxy-phenyl)-2-[[(2R,8S)-2-fluoro-1,2,3,5,6,7-hexahydropyrrolizin-8-yl]methoxy]pyrido[3,2-d]pyrimidin-4-y1]-2,5-diazabicyclo[2.2.1]heptan-2-yl]prop-2-en-1-one] yielded an IC50 greater than 1 µM.
In the case of `C=CC(=O)N1CCN(c2nc(OC[C@@]34CCCN3C[C@H](F)C4)nc3c(F)c(-c4cc(O)cc(Cl)c4C4CC4)ccc23)CC12CC2` [Compound 313, 1-[7-[7-(3-chloro-2-cyclopropyl-5-hydroxy-phenyl)-8-fluoro-2-[[(2R,8S)-2-fluoro-1,2,3,5,6,7-hexahydropyrrolizin-8-yl]methoxy]quinazolin-4-yl]-4,7-diazaspiro[2.5]octan-4-yl]prop-2-en-1-one], the IC50 was 0.0373 µM.
